Molecules are shown by their SMILES. Square brackets hold non-standard residues; d marks the D form. Peptide text beside a SMILES is read from it. 2Nal = N[C@@H](Cc1ccc2ccccc2c1)C(=O)O; Cha = N[C@@H](CC1CCCCC1)C(=O)O; Aoc(2) = CCCCCC[C@H](N)C(=O)O; hSer = N[C@@H](CCO)C(=O)O; Nle = CCCC[C@H](N)C(=O)O; Orn = NCCC[C@H](N)C(=O)O; Dab = NCC[C@H](N)C(=O)O; Nva = CCC[C@H](N)C(=O)O; Dap = NC[C@H](N)C(=O)O

Results on 25 compounds are retold here after ChEMBL document CHEMBL5608163, “Structure modification of anoplin for fighting resistant bacteria” (Eur J Med Chem, 2024).

Series [1] relates to Erythrocyte. In words: Hemolytic activity in human erythrocytes incubated for 1 hr by ELISA reader analysis. Type of series: toxicity, cell-based.
For series [2], the system named is Escherichia coli. Briefly: Antimicrobial activity against Escherichia coli ATCC 25922 assessed as reduction in microbial growth measured after 24 hrs by CLSI based broth microdilution method. Type of series: functional. (In general: Broth dilution looks for growth in wells or tubes with falling amounts of substance.)

As a reminder, the MIC is the smallest concentration in the dilution series that meets the test's criterion for growth inhibition. Compound `CC[C@H](C)[C@H](NC(=O)[C@H](CCCNC(=N)N)NC(=O)[C@H](CCCCN)NC(=O)[C@H](CC(C)C)NC(=O)[C@H](C)NC(=O)CN)C(=O)N[C@@H](CCCCN)C(=O)N[C@H](C(=O)N[C@@H](CC(C)C)C(=O)N[C@@H](C)C(N)=O)[C@@H](C)O` (H-GALKRIKTLA-NH2) had an HC10 in series [1] of more than 500 µM. Besides, the MIC in series [2] turned out to be 50 µM.
On the same counts, the results for `CC(C)C[C@H](NC(=O)[C@H](C)NC(=O)CN)C(=O)N[C@@H](CCCCN)C(=O)N[C@@H](CCCNC(=N)N)C(=O)N[C@@H](Cc1ccc2ccccc2c1)C(=O)N[C@@H](CCCCN)C(=O)N[C@H](C(=O)N[C@@H](CC(C)C)C(=O)N[C@@H](C)C(N)=O)[C@@H](C)O` (H-GALKR[2Nal]KTLA-NH2) are more than 500 µM and more than 200 µM.
The compound `CC[C@H](C)[C@H](NC(=O)[C@H](CCCNC(=N)N)NC(=O)[C@H](CCCCN)NC(=O)[C@H](CC(C)C)NC(=O)[C@H](CC(C)C)NC(=O)CN)C(=O)N[C@@H](CCCCN)C(=O)N[C@@H](CO)C(=O)N[C@@H](CC(C)C)C(=O)N[C@@H](CC(C)C)C(N)=O` (H-GLLKRIKSLL-NH2) had an HC10 in series [1] of more than 500 µM. Also, the MIC in series [2] was 100 µM.
The matching figures for `CC[C@H](C)[C@H](NC(=O)[C@H](CCCNC(=N)N)NC(=O)[C@H](CO)NC(=O)[C@H](CC(C)C)NC(=O)[C@H](CC(C)C)NC(=O)CN)C(=O)N[C@@H](CCCCN)C(=O)N[C@H](C(=O)N[C@@H](CC(C)C)C(=O)N[C@@H](CC(C)C)C(N)=O)[C@@H](C)O` (H-GLLSRIKTLL-NH2): more than 500 µM and 100 µM.
On the same counts, the results for `CC[C@H](C)[C@H](NC(=O)[C@H](CCCNC(=N)N)NC(=O)[C@@H](NC(=O)[C@H](CC(C)C)NC(=O)[C@H](CC(C)C)NC(=O)CN)[C@@H](C)O)C(=O)N[C@@H](CCCCN)C(=O)N[C@H](C(=O)N[C@@H](CC(C)C)C(=O)N[C@@H](CC(C)C)C(N)=O)[C@@H](C)O` (H-GLLTRIKTLL-NH2) are more than 500 µM and 200 µM.
On the same counts, the results for `CC[C@H](C)[C@H](NC(=O)[C@H](CCCNC(=N)N)NC(=O)[C@H](CCN)NC(=O)[C@H](CC(C)C)NC(=O)[C@H](CC(C)C)NC(=O)CN)C(=O)N[C@@H](CCCCN)C(=O)N[C@H](C(=O)N[C@@H](CC(C)C)C(=O)N[C@@H](CC(C)C)C(N)=O)[C@@H](C)O` (H-GLL[Dab]RIKTLL-NH2) are more than 500 µM and 75 µM.
In turn, `CC[C@H](C)[C@H](NC(=O)[C@H](CCCNC(=N)N)NC(=O)[C@H](CCN)NC(=O)[C@H](CC(C)C)NC(=O)[C@H](CC(C)C)NC(=O)CN)C(=O)N[C@@H](CCCCN)C(=O)N[C@@H](CCN)C(=O)N[C@@H](CC(C)C)C(=O)N[C@@H](CC(C)C)C(N)=O` (H-GLL[Dab]RIK[Dab]LL-NH2) came in with an HC10 in series [1] of more than 500 µM. In addition, the MIC in series [2] is more than 200 µM.
The matching figures for `CC[C@H](C)[C@H](NC(=O)[C@H](CCCNC(=N)N)NC(=O)[C@H](CN)NC(=O)[C@H](CC(C)C)NC(=O)[C@H](CC(C)C)NC(=O)CN)C(=O)N[C@@H](CCCCN)C(=O)N[C@H](C(=O)N[C@@H](CC(C)C)C(=O)N[C@@H](CC(C)C)C(N)=O)[C@@H](C)O` (H-GLL[Dap]RIKTLL-NH2): more than 500 µM and 100 µM.
The matching figures for `CC[C@H](C)[C@H](NC(=O)[C@H](CCCNC(=N)N)NC(=O)[C@H](CCCN)NC(=O)[C@H](CC(C)C)NC(=O)[C@H](CC(C)C)NC(=O)CN)C(=O)N[C@@H](CCCCN)C(=O)N[C@H](C(=O)N[C@@H](CC(C)C)C(=O)N[C@@H](CC(C)C)C(N)=O)[C@@H](C)O` (H-GLL[Orn]RIKTLL-NH2): more than 500 µM and 100 µM.
Take `CC[C@H](C)[C@H](NC(=O)[C@H](CCCNC(=N)N)NC(=O)[C@H](CCO)NC(=O)[C@H](CC(C)C)NC(=O)[C@H](CC(C)C)NC(=O)CN)C(=O)N[C@@H](CCCCN)C(=O)N[C@H](C(=O)N[C@@H](CC(C)C)C(=O)N[C@@H](CC(C)C)C(N)=O)[C@@H](C)O` (H-GLL[hSer]RIKTLL-NH2): the HC10 in series [1] is more than 500 µM. Also, the MIC in series [2] was 150 µM.
As for `CC[C@H](C)[C@H](NC(=O)[C@H](CCCNC(=N)N)NC(=O)[C@H](CCCCN)NC(=O)[C@H](CCSC)NC(=O)[C@H](CC(C)C)NC(=O)CN)C(=O)N[C@@H](CCCCN)C(=O)N[C@H](C(=O)N[C@@H](CCSC)C(=O)N[C@@H](CC(C)C)C(N)=O)[C@@H](C)O` (H-GLMKRIKTML-NH2), the HC10 in series [1] was more than 500 µM. In addition, the MIC in series [2] was more than 200 µM.
On the same counts, the results for `CCC[C@H](NC(=O)[C@H](CC(C)C)NC(=O)CN)C(=O)N[C@@H](CCCCN)C(=O)N[C@@H](CCCNC(=N)N)C(=O)N[C@@H](Cc1ccc2ccccc2c1)C(=O)N[C@@H](CCCCN)C(=O)N[C@H](C(=O)N[C@@H](CCC)C(=O)N[C@@H](CC(C)C)C(N)=O)[C@@H](C)O` (H-GL[Nva]KR[2Nal]KT[Nva]L-NH2) are more than 500 µM and 100 µM.
The matching figures for `CC[C@H](C)[C@H](NC(=O)[C@H](CCCNC(=N)N)NC(=O)[C@H](CCCCN)NC(=O)[C@H](CC(C)C)NC(=O)[C@H](CCSC)NC(=O)CN)C(=O)N[C@@H](CCCCN)C(=O)N[C@H](C(=O)N[C@@H](CC(C)C)C(=O)N[C@@H](CC(C)C)C(N)=O)[C@@H](C)O` (H-GMLKRIKTLL-NH2): 400 µM and 200 µM.
`CC[C@H](C)[C@H](NC(=O)[C@H](CCCNC(=N)N)NC(=O)[C@H](CCCCN)NC(=O)[C@H](CC(C)C)NC(=O)[C@H](CCSC)NC(=O)CN)C(=O)N[C@@H](CCCCN)C(=O)N[C@H](C(=O)N[C@@H](CC(C)C)C(=O)N[C@@H](CCSC)C(N)=O)[C@@H](C)O` (H-GMLKRIKTLM-NH2) yielded an HC10 in series [1] of 500 µM. Besides, in series [2], the MIC is more than 200 µM.
On the same counts, the results for `CC[C@H](C)[C@H](NC(=O)[C@H](CCCNC(=N)N)NC(=O)[C@H](CCCCN)NC(=O)[C@H](CCSC)NC(=O)[C@H](CCSC)NC(=O)CN)C(=O)N[C@@H](CCCCN)C(=O)N[C@H](C(=O)N[C@@H](CCSC)C(=O)N[C@@H](CCSC)C(N)=O)[C@@H](C)O` (H-GMMKRIKTMM-NH2) are more than 500 µM and more than 200 µM.
The compound `CC[C@H](C)[C@H](NC(=O)[C@H](CCCNC(=N)N)NC(=O)[C@H](CCCCN)NC(=O)[C@H](CC(C)C)NC(=O)[C@H](COC)NC(=O)CN)C(=O)N[C@@H](CCCCN)C(=O)N[C@H](C(=O)N[C@@H](CC(C)C)C(=O)N[C@@H](CC(C)C)C(N)=O)[C@@H](C)O` (H-GS(Me)LKRIKTLL-NH2) displayed an HC10 in series [1] of more than 500 µM. Also, in series [2], the MIC is more than 200 µM.
On the same counts, the results for `CC[C@H](C)[C@H](NC(=O)[C@H](CCCNC(=N)N)NC(=O)[C@H](CCCCN)NC(=O)[C@H](CC(C)C)NC(=O)[C@H](COC)NC(=O)CN)C(=O)N[C@@H](CCCCN)C(=O)N[C@H](C(=O)N[C@@H](CC(C)C)C(=O)N[C@@H](COC)C(N)=O)[C@@H](C)O` (H-GS(Me)LKRIKTLS(Me)-NH2) are more than 500 µM and more than 200 µM.
The matching figures for `CC[C@H](C)[C@H](NC(=O)[C@H](CCCNC(=N)N)NC(=O)[C@H](CCCCN)NC(=O)[C@H](COC)NC(=O)[C@H](COC)NC(=O)CN)C(=O)N[C@@H](CCCCN)C(=O)N[C@H](C(=O)N[C@@H](COC)C(=O)N[C@@H](COC)C(N)=O)[C@@H](C)O` (H-GS(Me)S(Me)KRIKTS(Me)S(Me)-NH2): more than 500 µM and 12.5 µM.
On the same counts, the results for `CC[C@H](C)[C@H](NC(=O)[C@H](CCCNC(=N)N)NC(=O)[C@H](CCCCN)NC(=O)[C@H](CC(C)C)NC(=O)[C@@H](NC(=O)CN)C(C)C)C(=O)N[C@@H](CCCCN)C(=O)N[C@H](C(=O)N[C@@H](CC(C)C)C(=O)N[C@H](C(N)=O)C(C)C)[C@@H](C)O` (H-GVLKRIKTLV-NH2) are more than 500 µM and more than 200 µM.
The compound `CC[C@H](C)[C@H](NC(=O)[C@H](CCCNC(=N)N)NC(=O)[C@H](CCCCN)NC(=O)[C@@H](NC(=O)[C@@H](NC(=O)CN)C(C)C)C(C)C)C(=O)N[C@@H](CCCCN)C(=O)N[C@H](C(=O)N[C@H](C(=O)N[C@H](C(N)=O)C(C)C)C(C)C)[C@@H](C)O` (H-GVVKRIKTVV-NH2) gave an HC10 in series [1] of more than 500 µM. Moreover, the MIC in series [2] is more than 200 µM.
In turn, `CC[C@H](C)[C@H](NC(=O)[C@H](CCCNC(=N)N)NC(=O)[C@H](CCCCN)NC(=O)[C@H](Cc1ccc2ccccc2c1)NC(=O)CN)C(=O)N[C@@H](CCCCN)C(=O)N[C@H](C(=O)N[C@@H](CC(C)C)C(=O)N[C@@H](CC(C)C)C(N)=O)[C@@H](C)O` (H-G[2Nal]KRIKTLL-NH2) registered an HC10 in series [1] of 300 µM. For the same compound, in series [2], the MIC came to 6.25 µM.
The matching figures for `CCCCCC[C@H](NC(=O)[C@H](CC(C)C)NC(=O)[C@@H](NC(=O)[C@H](CCCCN)NC(=O)[C@@H](NC(=O)[C@H](CCCNC(=N)N)NC(=O)[C@H](CCCCN)NC(=O)[C@H](CC(C)C)NC(=O)[C@H](CCCCCC)NC(=O)CN)[C@@H](C)CC)[C@@H](C)O)C(N)=O` (H-G[Aoc(2)]LKRIKTL[Aoc(2)]-NH2): 71 µM and 6.25 µM.
Compound `CCCCCC[C@H](NC(=O)[C@H](CCCCCC)NC(=O)[C@@H](NC(=O)[C@H](CCCCN)NC(=O)[C@@H](NC(=O)[C@H](CCCNC(=N)N)NC(=O)[C@H](CCCCN)NC(=O)[C@H](CCCCCC)NC(=O)[C@H](CCCCCC)NC(=O)CN)[C@@H](C)CC)[C@@H](C)O)C(N)=O` (H-G[Aoc(2)][Aoc(2)]KRIKT[Aoc(2)][Aoc(2)]-NH2) had an HC10 in series [1] of 20 µM.
On to `CC[C@H](C)[C@H](NC(=O)[C@H](CCCNC(=N)N)NC(=O)[C@H](CCCCN)NC(=O)[C@H](CC(C)C)NC(=O)[C@H](CC1CCCCC1)NC(=O)CN)C(=O)N[C@@H](CCCCN)C(=O)N[C@H](C(=O)N[C@@H](CC1CCCCC1)C(=O)N[C@@H](CC(C)C)C(N)=O)[C@@H](C)O` (H-G[Cha]LKRIKT[Cha]L-NH2), for which, in series [1], the HC10 amounted to 120 µM. In series [2], the MIC came to 12.5 µM.
On the same counts, the results for `CCCC[C@H](NC(=O)[C@H](CC(C)C)NC(=O)[C@@H](NC(=O)[C@H](CCCCN)NC(=O)[C@@H](NC(=O)[C@H](CCCNC(=N)N)NC(=O)[C@H](CCCCN)NC(=O)[C@H](CC(C)C)NC(=O)[C@H](CCCC)NC(=O)CN)[C@@H](C)CC)[C@@H](C)O)C(N)=O` (H-G[Nle]LKRIKTL[Nle]-NH2) are more than 500 µM and 100 µM.
